Assay results published in patent publication US7119229B2 (priority 2001, dated 2006).

Key:
Assay type in all cases: cell-based
HCT-15 (human colon) = assay: SRB cytotoxicity assay, HCT15; conditions: HCT-15, 72 h, read-out: ED50 HCT15
Description: (§1) Human tumor cells, including MCF-7 (human breast adenomatous tumor), MCF-7/DOX (adriamycin resistant cell strain), MRS-SA (human uterine sarcoma), MES-SA/DX5 (adriamycin resistant cell strain), A 549 (human non-small cell lung), SKOV-3 (human ovarian), SKMEL-2 (human melanoma), XF-498 (human CNS), HCT-15 (human colon) were incubated at 37° C. in the presence of 5% CO2 using a DMEM culture medium. The respective cells were seeded into each well of 96-well plates at a concentration of 2×10^3˜5×10^3 cells/well. […] Each cell line of the resultant plates was fixed with trichloroacetic acid (TCA), stained with 0.4% SRB solution and rinsed with 1% acetic acid. Thereafter, the dye was dissolved in 10 mM Tris base to measure the optical density (OD) at 520 nm.

XF-498 (human CNS) = assay: SRB cytotoxicity assay, XF498; conditions: 72 hours, read-out: ED50 XF498
Description: as §1

SKMEL-2 (human melanoma) = assay: SRB cytotoxicity assay, SK-MEL-2; conditions: SK-MEL-2, 72 h, read-out: ED50 SK-MEL-2
Description: as §1

[1] = tested on: BALB/c mouse spleen cells, T cells activated with concanvalin A (ConA); assay: Immunosuppressive effect test using BALB/c mouse spleen cells, ConA (T cells); conditions: 2 μg/ml of ConA, 72 hours, MTS, FIGS. 2 and 3
Description: (§2) This test was carried out to determine the immunosuppressive effect of an immunosuppressive candidate material by checking anti-proliferation of T cells and B cells. To identify the proliferation inhibitory extent, responding cells (BALB/c mouse spleen cells) were treated with an immunosuppressive candidate material, lipopolysaccharide (LPS) as a B cell activator and concanvalin A (ConA) as a T cell activator. It is known that the responding cells treated with LPS induce proliferation of B cells and those treated with ConA induce proliferation of T cells.
(§3) Responding cells (BALB/c mouse spleen cells) were seeded into each well of 96-well plates at a concentration of 2×10^5 cells/well. […] After culturing for 72 hours at a CO2 incubator, a 20 μl MTS solution was added to each well, followed by further culturing for 2 to 4 hours and measuring OD at 490 nm using ELISA.

SKOV-3 (human ovarian) = assay: SRB cytotoxicity assay, SK-OV-3; conditions: 72 hours, read-out: ED50 SK-OV-3
Description: as §1

[2] = tested on: MES-SA/DX5 (adriamycin resistant cell strain); assay: SRB cytotoxicity assay, MES-SA/DX5; conditions: Homo sapiens, MES-SA/Dx5, 72 h, read-out: ED50 MES-SA/DX5
Description: as §1

[3] = tested on: MCF-7 (human breast adenomatous tumor); assay: SRB cytotoxicity assay, MCF7; conditions: MCF7, 72 h, read-out: ED50 MCF7
Description: as §1

[4] = tested on: BALB/c mouse spleen cell (responding) and DBA/2 mouse spleen cell (stimulating)
Description: MLR tests were carried out to determine the immunosuppressive effect of an immunosuppressive candidate material. When a responding cell (BALB/c mouse spleen cell) and a stimulating cell (DBA/2 mouse spleen cell) were cultured separately, the cells grew little. On the contrary, when the cells were simultaneously cultured, the cells were proliferated due to induction of an antigen-antibody reaction. The proliferated cells were treated with the immunosuppressive candidate material for measurement of the proliferation inhibitory extent.
After culturing for 72 hours at a CO2 incubator, a 20 μl MTS solution was added to each well, followed by further culturing for 2 to 4 hours and measuring OD at […] by using ELISA.

[5] = tested on: BALB/c mouse spleen cells, B cells activated with lipopolysaccharide (LPS); assay: Immunosuppressive effect test using BALB/c mouse spleen cells, LPS (B cells); conditions: 20 μg/ml lipopolysaccharide, 72 hours, MTS, FIGS. 2 and 3
Description: as §2, §3

[6] = tested on: MCF-7/DOX (adriamycin resistant cell strain); assay: SRB cytotoxicity assay, MCF-7/DOX; conditions: Homo sapiens, MCF7-DOX, 72 h, read-out: ED50 MCF-7/DOX
Description: as §1

[7] = tested on: A 549 (human non-small cell lung); assay: SRB cytotoxicity assay, A549; conditions: A549, 72 h, read-out: ED50 A549
Description: as §1

[8] = tested on: MES-SA (human uterine sarcoma); assay: SRB cytotoxicity assay, MES-SA; conditions: 72 h, read-out: ED50 MES-SA
Description: as §1

With COc1cc2c(c(OC)c1OC)-c1ccc(SC)c(=O)cc1[C@@H](NC(=O)c1cccc(CO[N+](=O)[O-])c1)CC2 [Compound 12] the EC50 (HCT-15 (human colon)) was 0.1 nM, the EC50 (XF-498 (human CNS)) was 0.2 nM and the EC50 (SKMEL-2 (human melanoma)) was 0.1 nM. The “anti-proliferation of T cells” value [1] was “remarkable anti-proliferous effect”, the EC50 (SKOV-3 (human ovarian)) was 0.3 nM and the EC50 [2] was 115 nM. For the same compound, the EC50 [3] was 0.02 nM, the immunosuppressive effect [4] was “good immunosuppressive effect” and the “anti-proliferation of B cells” value [5] was “remarkable anti-proliferous effect”. It also gave an EC50 [6] of 28 nM, an EC50 [7] of 0.1 nM and an EC50 [8] of 0.01 nM.
